Experimental data from patent US10718028B2, “Fluorescent probes for abasic site detection” (CASE WESTERN RESERVE UIVERSITY, priority 2015, dated 2020).
“Also recorded” adds a separate entry of the source.

What was measured:
[1] = Optical properties of Cy7MX in various solvents (Example 2); assay type: physicochemical
Source text: Fluorescence quantum yield measurements. Fluorescent quantum yields determined by a comparative method to an indocyanine green (ICG) standard (F=0.132 in EtOH) with refractive index correction according to the equation:
[formula] • where F is the quantum yield; m is the slope of the integrated fluorescence intensity as a function of absorbance maxima; n is the refractive index of the solvent (EtOH, 1.3611; MeCN, 1.3442; H2O, 1.333; and CHCl3, 1.4459); and R is the reference sample, ICG in EtOH. Data were collected in a quartz cuvette with a 1 cm path length. Absorbance maxima for each sample were kept at or below 0.2 absorbance units to avoid inner filter effects. Fluorophores were excited at 700 nm and emission spectra integrated from 705 to 1000 nm. Solvents used were spectroscopic grade ethanol and HPLC grade acetonitrile, HPLC grade chloroform, and HPLC grade water. For the water solution, Cy7MX was first dissolved in MeCN and diluted at least 200 fold. SSB Activity Assay General Procedures
The absorption and fluorescence properties of Cy7MX were then evaluated in relatively nonpolar (CHCl3), polar aprotic (MeCN), and polar protic (EtOH and H2O) solvents. […] Likewise, the quantum yields of Cy7MX in these solvents compare favorably with other cyanine dyes (Table 3).

APE = molecular target: T1, APE (Homo sapiens, UniProt P27695); assay: SSB activity assay APE inhibition; assay type: biochemical
T1 construct: purchased New England BioLabs
Experimental: FIG. 7 illustrates the evaluation of APE inhibition by Cy7MX. […] APE is inhibited about 50% after 3 h incubation. The baseline reduction in cutting is due to competition of APE and Cy7MX for the AP-DNA substrate.
Meanwhile, five samples of each DNA reaction were prepared.
We determined if Cy7MX could inhibit the activity of the enzymes and thereby complicate the results on the assay. While the order of reagent addition in the assay may be structured to avoid enzyme inhibition, Cy7MX is envisioned as an imaging agent in living cells where the enzymes are constantly present. To test the possible inhibition of Cy7MX towards APE, the probe and enzyme were incubated together for a variable period of time then incubated for a fixed period of time with AP DNA (U:A DNA pretreated with UDG). If the two species were only competing for substrate, then the extent of cutting observed would be independent of the APE+Cy7MX incubation time. Conversely, if Cy7MX inhibits the action of APE, then the extent of cutting would vary as a function of APE+Cy7MX incubation time. In either case, some baseline reduction in cutting was expected as Cy7MX and APE competed for substrate. […] However, this effect was only observed after 60 minutes. Thus, the one hour incubation of APE in the cutting assay is not expected to be negatively impacted by the presence of Cy7MX.

[2] = Fluorescence and absorbance properties of Cy7MX in various solvents (Example 1); assay type: physicochemical
Experimental: NMR spectra were recorded on a Varian Mercury 300 MHz, a Varian Inova 400, and a Varian Inova 600 MHz spectrometer at room temperature, except where otherwise noted. Chemical shifts for 1H NMR were reported as 6, parts per million, and referenced to CHCl3 at 7.26 ppm or TMS at 0 ppm. Chemical shifts for ^13C NMR were reported as 6 and referenced to the center line of the CDCl3 triplet at 77.0 ppm or CH2Cl2 pentet at 54.0 ppm. Low resolution mass spectra were recorded on a ThermoScientific LCQ Advantage or a Finnigan LCQ Deca mass spectrometer. Fluorescence data were collected on a Varian Cary Eclipse fluorescence spectrophotometer in a quartz cuvette with a 1 cm pathlength or on a Tecan Infinite M200 scanner. Absorbance data were collected on a Varian Cary 50 Bio UV-Visible Spectrophotometer in a quartz cuvette with a 1 cm path length.
Fluorescent quantum yields were determined by a comparative method to an indocyanine green (ICG) standard (Φ=0.132 in EtOH) with refractive index correction according to Equation 1:
[formula] • where Φ is the quantum yield; F is the integrated fluorescence intensity (area); A is the absorbance; n is the refractive index of the solvent (ethanol, 1.3611; acetonitrile, 1.3442; water, 1.333; and chloroform, 1.4459); and R is the reference sample, ICG in EtOH. Sample and reference fluorophores were excited at 700 nm and emission spectra integrated from 705 to 1000 nm and absorption measurements were collected at 700 nm. Data were collected in a quartz cuvette with a 1 cm pathlength. Absorbance maxima for each sample were kept at or below 0.2 absorbance units to avoid inner filter effects. Solvents used were spectroscopic grade ethanol and HPLC grade acetonitrile, HPLC grade chloroform, and HPLC grade water. For the water solution, Cy7MX was first dissolved first in MeCN and diluted at least 200 fold. Synthesis of Compounds for AP Site Detection
Further characterization was conducted for Cy7MX (Table 2), Cy7MX, because it was chosen for extensive investigation in biological studies. The absorption and emission spectra were collected in polar protic (water and ethanol), polar aprotic (acetonitrile), and relatively nonpolar (chloroform) solvents. […] The extinction coefficient and the fluorescence quantum yields for Cy7MX compared favorably to other heptamethine cyanine dyes.

T1 sequence (P27695 whole entry): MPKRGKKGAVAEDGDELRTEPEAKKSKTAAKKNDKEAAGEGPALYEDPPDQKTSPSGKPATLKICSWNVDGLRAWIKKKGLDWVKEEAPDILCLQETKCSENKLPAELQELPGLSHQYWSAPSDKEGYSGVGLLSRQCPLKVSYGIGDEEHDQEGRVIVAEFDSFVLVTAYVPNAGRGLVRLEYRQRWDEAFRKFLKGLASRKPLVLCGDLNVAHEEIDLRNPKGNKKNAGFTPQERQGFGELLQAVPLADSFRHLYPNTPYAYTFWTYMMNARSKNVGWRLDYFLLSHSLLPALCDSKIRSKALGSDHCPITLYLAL

CCCN1/C(=C/C=C2\CCCC(/C=C/C3=[N+](CCC)c4ccccc4C3(C)C)=C2Oc2ccc(CC(=O)NCCCON)cc2)C(C)(C)c2ccccc21 [Cy7MX, 2-((E)-2-((E)-2-(4-(2-((3-(aminooxy)propyl)amino)-2-oxoethyl)phenoxy)-3-((E)-2-(3,3-dimethyl-1-propylindolin-2-ylidene)ethylidene)cyclohex-1-en-1-yl)vinyl)-3,3-dimethyl-1-propyl-3H-indol-1-ium 2,2,2-trifluoroacetate]
Φ ([1]; CHCl3): 38.2% | λabs ([1]; CHCl3): 770 nm | λem ([1]; CHCl3): 791 nm | absorption maximum ([1]; CHCl3, MeCN, EtOH and H2O): ~770 nm | emission maximum ([1]; CHCl3, MeCN, EtOH and H2O): ~790 nm | solvatochromic shifts ([1]; CHCl3, MeCN, EtOH and H2O): No solvatochromic shifts were observed | Φ ([1]; EtOH): 39.3% | ε ([1]; EtOH): 127,000 M−1cm−1 | λabs ([1]; EtOH): 770 nm | λem ([1]; EtOH): 796 nm | Φ ([1]; H2O): 6.6% | ε ([1]; H2O): 140,000 M−1cm−1 | λabs ([1]; H2O): 767 nm | λem ([1]; H2O): 790 nm | Φ ([1]; MeCN): 48.7% | ε ([1]; MeCN): 154,000 M−1cm−1 | λabs ([1]; MeCN): 767 nm | λem ([1]; MeCN): 789 nm | APE inhibition (APE; 60 min APE incubation): no detectable inhibition | APE inhibition (APE; APE and Cy7MX incubated together before addition of AP-DNA, variable time, 2,2,2-trifluoroacetate): did have inhibitory effects on APE; also recorded: mild inhibition | APE inhibition (APE; after 3 h incubation of APE with Cy7MX): about 50% | APE inhibition (APE; tetrahydrofuran (THF) base in place of the AP site): moderate inhibition of APE | Φ ([2]; CHCl3): 32.6% | λabs ([2]; CHCl3): 770 nm | λem ([2]; CHCl3): 791 nm | Φ ([2]; EtOH): 36.3% | ε ([2]; EtOH): 127,000 M^−1cm^−1 | λabs ([2]; EtOH): 770 nm | λem ([2]; EtOH): 796 nm | Φ ([2]; H2O): 6.3% | ε ([2]; H2O): 140,000 M^−1cm^−1 | λabs ([2]; H2O): 767 nm | λem ([2]; H2O): 790 nm | Φ ([2]; MeCN): 45.9% | ε ([2]; MeCN): 154,000 M^−1cm^−1 | λabs ([2]; MeCN): 767 nm | λem ([2]; MeCN): 789 nm | solvatochromism ([2]; water, ethanol, acetonitrile, chloroform): No solvatochromism was observed
